According to patent US20090030034A1, “USE OF FGF INHIBITING SUBSTITUTED 1,2,3 INDOLIZINE DERIVATIVES IN THE PREPARATION OF MEDICAMENTS WHICH CAN BE USED TO TREAT DISEASES LINKED TO PATHOLOGICAL CHOROIDAL ANGIOGENESIS” (SANOFI-AVENTIS, priority 2004, published 2009):

Tested on: laser-induced choroidal neovascularization
Assay: Laser induction of choroidal neovascularization in mice, oral treatment
Format: in vivo, C57BI6 mice
Conditions: 30 mg/kg/day orally during the last 7 days, day 14 after induction
Description: C57BI6 mice were used in these experiments. A model of laser-induced choroidal neovascularization (4 impacts per eye around the papilla) was applied to the animals as described by Tobe et al. Am. J. Pathol., 1998).
On day 14 after the induction and after monitoring by angiography, which makes it possible to estimate the percentage of lesions developing neovascularization, the animals are sacrificed and the eyeballs are enucleated for histological analysis. The mice are treated orally with one of the compounds of formula (I) during the last 7 days. The dose chosen for the monohydrate of the sodium salt of 2-amino-5-[(1-methoxy-2-methylindolizin-3-yl)carbonyl]benzoic acid is 30 mg/kg/day. The vehicle used is a 0.6% solution of methylcellulose in water.
Four mice are used for the control group and six mice for the treated group.
The size of the neovascular reaction is estimated from frozen sections by morphometric evaluations of the thickness using a computerized image analysis system. […]
Estimation is carried out by measuring the B/C ratio between, on the one hand, the EPR and the peak of the neovascular reaction (“B”), and, on the other hand, the thickness of the adjacent intact choroidal layer (“C”). This quantifying system was preferred to measuring surface areas of lesions as it is independent of the orientation of the histological sections.

Compound: COc1c(C)c(C(=O)c2ccc(N)c(C(=O)O)c2)n2ccccc12 [2-amino-5-[(1-methoxy-2-methylindolizin-3-yl)carbonyl]benzoic acid]
- histological analysis and anti-CD31 immunohistochemistry of the laser impact sites: only a moderate thickening of the choriocapillary where the impacts occurred, without obvious sign of neovascularization
- reduction of the laser-induced neovascular reaction, quantified by the B/C ratio, in comparison with the control mice (frozen sections, morphometric thickness, p<0.001): ~50%
